Here are results for 7 molecules from paper PMC7463734, “Identification and Validation of an Aspergillus nidulans Secondary Metabolite Derivative as an Inhibitor of the Musashi-RNA Interaction” (Cancers, 2020).

Like-named read-outs stand apart in the source and are kept apart here.

One series deals with T1, RBD1 of MSI1 (Homo sapiens, UniProt O43347).
T1 construct: made in house; host or cells: Escherichia coli
T1 sequence (O43347 20-107): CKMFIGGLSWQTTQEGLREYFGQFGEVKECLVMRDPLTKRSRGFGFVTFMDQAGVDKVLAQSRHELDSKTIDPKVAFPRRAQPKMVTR
The series is described as follows: FP dose-response (competition) disrupting RBD1-Numb^FITC complex. The format is binding. As for the experimental part:
To further examine the initial hits, we tested compounds with similar scaffolds shown in Figure 3 and Figure S1 in an FP dose-response assay. […] We thus focused our further validation studies on Aza-9.
Figure 4 FP dose-response validation compounds binding to RBD1 of MSI1. Ki values were calculated based on the Kd and the dose-response curves. TEXT PRINTED IN THE PICTURE: Aza-7: IC50 [μM]: 7.1; Ki [μM]: 3.0 | Aza-8: IC50 [μM]: 4.0; Ki [μM]: 1.7 | Aza-9: IC50 [μM]: 2.8; Ki [μM]: 1.2 | Aza-10: IC50 [μM]: 7.5; Ki [μM]: 3.2 | Aza-11: IC50 [μM]: 3.9; Ki [μM]: 1.7 | Aza-12: IC50 [μM]: 6.3; Ki [μM]: 2.7 | Aza-13: IC50 [μM]: 4.5; Ki [μM]: 1.9 | Aza-14: IC50 [μM]: 11.6; Ki [μM]: 5.0 | Aza-15: IC50 [μM]: >20 | Aza-16: IC50 [μM]: 6.8; Ki [μM]: 2.9 | Aza-17: IC50 [μM]: >20
pET21a-GB1-RBD1 (MSI1-RBD1) plasmids encoding the Homo sapiens RNA binding domain 1 (RBD1, residues 20-107) of MSI1 were constructed with Mus musculus cDNAs under T7 promoter. MSI1-RBD1 proteins were expressed in Escherichia coli and purified, as previously described. Protein concentrations were determined using the Bradford assay (Bio-Rad, Hercules, CA, USA). Purification of MSI2-RBD1 protein was carried out according to the previous publication.
FP, SPR and NMR assays were carried out according to the previous publication. For computer modeling of Aza-9 to MSI1/2, the AutoDock4.2.6 program was used for predicting the binding mode. The NMR structure of MSI1-RBD1 in complex with RNA (PDB: 2RS2) and the NMR structure of apo MSI2-RBD1 (PDB: 6C8U) were used as the receptor structure. The MSI1 RBD1–RNA interface and corresponding site in MSI2-RBD1 was used as the starting point for the docking calculations. The initial three-dimensional model of the Aza-9 compound was generated using the BABEL program and was used as starting coordinates to define the ligand structure. For docking, a grid box of size 40 × 44 × 56 A with 0.375 A spacing was centered at residue F23 in MSI1-RBD1 (or F24 in MSI2-RBD1). A total of 200 docking runs were carried out using the Lamarckian genetic algorithm. The docked conformation with the lowest energy was selected as the final conformation.

The next series has as its system HCT-116. The series is described as follows: MTT-based cytotoxicity assay. The format is cell-based, Human. As for the experimental part: In an 3-(4,5-dimethylthiazol-2-yl)-2,5-diphenyl tetrazolium bromide (MTT)-based cytotoxicity assay, free Aza-9 had no effect on the cell viability (Figure 7A), potentially due to poor cellular uptake (Figure 7B, upper left panel). We then used PEGylated liposomes to facilitate Aza-9 entry into the cells (Figure 7B, bottom panel compare to upper left panel). Compared to the free Aza-9, which has no effect at 300 µM, Aza-9-liposome (Aza-9-lip) killed colon cancer cell line HCT-116 with an IC50 around 90 µM (Figure 7A). […] Consistent with MTT, Aza-9-lip, but not liposomes, inhibited cell proliferation in a cell growth assay (Figure 7C). […] (Figure 8A). To determine whether Aza-9-lip induces apoptosis and/or autophagy in the colon cancer cell lines, we first measured caspase-3 and PARP cleavage levels. As shown in Figure 8B and Figure S5, Aza-9-lip induced caspase-3 and PARP cleavage in HCT-116 and DLD-1 cells. […]
Human colon cancer cell lines HCT-116, DLD-1, and RKO were obtained from American Type Culture Collection (ATCC) and are as described by Lan et al.. Cell growth, MTT, cell cycle analysis, western blot analysis, RT-PCR, and quantitative real-time PCR were carried out according to our previous publications. For western blot analysis with Aza-9-liposome treatment, samples were collected after 24 h; for quantitative real-time PCR, samples were collected after 48 h. […]
(Tetrazolium assays rely on reduction of a dye to a coloured formazan, in cell work by metabolically active cells.)

For a further series, the system named is T2, MSI1.
T2 construct: test whether biotinylated Numb RNA (Numb^biotin) can pull down MSI1 protein from the cell lysate; endogenous in cells; host or cells: HCT-116 β/W
The series is described as follows: Numb RNA pull-down from HCT-116 β/W cell lysate. The series is classed as cell-based, Human. The conditions noted are these: 20 μM, 6 h. The source says:
To test whether Aza-9 disrupts the binding of MSI1 to Numb RNA in cells, we carried out an RNA pull-down assay using HCT-116 β/W cell lysate. Before we tested our compound in the assay, we tested whether biotinylated Numb RNA (Numb^biotin) can pull down MSI1 protein from the cell lysate. […] Mutations in Numb (Numb-mut^biotin) attenuated its binding to MSI1 (lane 2 versus lane 4, Figure 5B and Figure S4 top panel). As a positive control, we added non-labelled Numb RNA to the system, Numb RNA completely abolished the binding between Numb^biotin and MSI1 (lane 6 versus lane 4, Figure 5B and Figure S4 top panel). […] Next, we tested whether Aza-9 can attenuate MSI1 RNA binding.
RNA pull-downs were carried out according to manufacturer’s protocol with modifications (Roche, Basel, Switzerland). Briefly, HCT-116 β/W cells were plated on 100 mm dish on day 1. The next day, cells were treated with Aza-9 (20 μM) or DMSO for 6 h, and cell lysates were collected using buffer 1 from IP kit (Roche). Protein concentrations were measured for each sample, and streptavidin beads were added for preclearance and incubated at 4 °C for 3 h. After preclearance, for each sample, 500 μg of total protein was transferred to a new tube. For positive control, unlabeled Numb (final concentration: 5 μM) was added and incubated in 4 °C. […]

A further series addresses T3, MSI2-RBD1 (Homo sapiens, UniProt Q96DH6).
T3 construct: made in house
T3 sequence (Q96DH6 21-111 limits assumed): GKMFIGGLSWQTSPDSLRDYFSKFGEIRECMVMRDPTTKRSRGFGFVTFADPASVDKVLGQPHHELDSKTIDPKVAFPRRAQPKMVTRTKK
The series is described as follows: FP dose response of binding to MSI2-RBD1 (Numb^FITC RNA). The source says:
To test whether Aza-9 can be used as a dual inhibitor to block the RNA-binding ability of both Musashi proteins, we tested Aza-9 for Musashi-2 (MSI2) binding in FP and NMR assays as previously described. […] These residues are in similar positions to F23, F65, and K93 in MSI1-RBD1 [36]. We mapped the peak intensity ratios lower than one standard deviation from the mean (Figure S2) to the structure of MSI2-RBD1. Residues with significant peak intensity reductions clustered around the RNA binding site, which is composed of the central four anti-parallel β sheets and surrounding loops (Figure 6C).
Figure 6 Aza-9 binds to MSI2-RBD1. (A) FP dose response of Aza-9 binding to MSI2-RBD1. (B) ^1H-^15N HSQC spectra of 80 μM ^15N and ^13C ILV methyl labeled MSI2-RBD1 with increasing molar ratios of AZA-9. (C) Mapping residues with peak intensity ratio lower than one standard deviation from the mean onto the structure of MSI2-RBD1. Residues with peak intensity ratio lower than 0.40 are colored red; residues with peak intensity ratios in the range of 0.40–0.54 are colored yellow. (D) Computational docking of Aza-9 bound to MSI2-RBD1. The Aza-9 is shown in sticks, and the protein is represented as spheres. Five of MSI2-RBD1 RNA binding residues (M23, G26, F64, V95, and K94) that undergo significant peak shifts are highlighted in green. […]

The next series relates to T4, GB1-RBD1 (MSI1).
T4 construct: made in house; host or cells: Escherichia coli
The series is described as follows: SPR binding to immobilized GB1-RBD1. The arrangement: species or system Homo sapiens. The conditions noted are these: increasing concentrations. The source says:
An SPR assay with the protein GB1-RBD1 and not the RNA allowed us to evaluate the binding of the compound to the protein directly.
Figure 5 Validation of the top hit Aza-9. (A) SPR analyses of Aza-9 binding to immobilized GB1-RBD1. Sensorgram representing direct binding kinetics for Aza-9 are shown in response units (RUs) as a function of time with increasing concentrations (shown as colorful lines). (B) Numb RNA pulldown. (Top) Numb^biotin (lane 4) can pull down MSI1 but not CTL^biotin (lane 3); Numb-Mut^biotin (lane 2) partially pulled down MSI1. […] (Bottom) 20 μM Aza-9 attenuated the binding between MSI1 and Numb^biotin RNA. n = 2, one representative western blot is shown. (C) Overlay of 15N-HSQC (Heteronuclear single quantum coherence spectroscopy) spectra sections of MSI1-RBD1 (black), and MSI1-RBD1 bound to Aza-9 at different ratios. (D) Computational docking of Aza-9 bound to RBD1. The Aza-9 is shown in sticks, and the protein is represented as spheres. Three of MSI1-RBD1 RNA binding residues (W29, F23, and K93) that undergo significant peak shifts are highlighted in cyan.
FP, SPR and NMR assays were carried out according to the previous publication. For computer modeling of Aza-9 to MSI1/2, the AutoDock4.2.6 program was used for predicting the binding mode. […]
Background: In SPR one partner is held on a chip, and binding of the other changes the refractive index at the surface.

The target in the next series is GB1-MSI1-RBD1 (Homo sapiens (Methods: human RBD1, …, UniProt O43347 20-107)). Nature of the series: fluorescence polarization; 2-10 nM RNA; FP with 2 nM FITC-RNA; 0-2% DMSO had no significant effect (2 h incubation); buffer, salt, pH and temperature not given (cited to earlier publications). The conditions noted are these: protein: recombinant; tags: GB1 (protein G B1 domain); label: 3'-FITC; single strand. A general note: Fluorescence polarisation rises when a labelled molecule tumbles more slowly, as on binding a larger partner.

The mark [1] stands for this setting: FP dose-response, RBD1 of MSI1, read-out: IC50.
The mark [2] stands for this setting: calculated based on the Kd and the dose-response curves, read-out: Ki.

For orientation: IC50 means the concentration needed to halve the response being measured. By Ki is commonly meant a dissociation constant, usually derived from enzyme kinetics or from competition with a known ligand. As to `CC[C@H](C)/C=C(C)/C=C/C1=CC2=C(Cl)C(=O)[C@](C)(OC(C)=O)C(=O)C2=CO1` [Aza-7, sclerotiorin], at RBD1 of MSI1 (setting [1]), the IC50 was determined as 7.1 µM. Besides, the Ki at RBD1 of MSI1 (setting [2]) was 3000 nM.

Turning to `CC[C@H](C)/C=C(C)/C=C/C1=CC2=C(Cl)C(=O)C(C)(OC(C)=O)C(=O)C2=CO1` (some centres unmarked) [Aza-8], the IC50 on RBD1 of MSI1 (setting [1]) turned out to be 4 µM. Besides, the Ki on RBD1 of MSI1 (setting [2]) is 1700 nM.

For the molecule `CC[C@H](C)/C=C(C)/C=C/C1=CC2=C(Br)C(=O)C(C)(OC(C)=O)C(=O)C2=CO1` (some centres unmarked) [Aza-9], the “effect on cell viability” value with HCT-116 (300 µM, HCT-116) is on record as “no effect”. Moreover, the IC50 in the series with HCT-116 (Homo sapiens, HCT-116, MTT) was > 300 µM; on MSI2-RBD1, 4.1 µM; on RBD1 of MSI1 (setting [1]), 2.8 µM. For the same molecule, in the series on MSI1, the “binding between MSI1 and Numb RNA (pull-down)” value is “attenuate, at least in part”. Besides, the results for the Ki on MSI2-RBD1 and at RBD1 of MSI1 (setting [2]) were 500 nM and 1200 nM, respectively. The “binding to GB1-RBD1 in SPR” value in the series with GB1-RBD1 (MSI1) is “dose-dependent binding”. Also, the “dose-response effect in disrupting the RBD1-Numb^FITC complex / affinity towards GB1-RBD1” value at RBD1 of MSI1 is listed as “highest affinity”.

With `CC[C@H](C)/C=C(C)/C=C/C1=CC2=CC(=O)C(C)(O)C(=O)C2=CO1` (some centres unmarked) [Aza-11], the IC50 at RBD1 of MSI1 (setting [1]) came to 3.9 µM. Moreover, the Ki on RBD1 of MSI1 (setting [2]) was 1700 nM.

As for `CC[C@H](C)/C=C(C)/C=C/C1=CC2=C(Cl)C(=O)C(C)(O)C(=O)C2=CO1` (some centres unmarked) [Aza-12], at RBD1 of MSI1, the IC50 came to 6.3 µM and the affinity corresponds to a Ki of 2700 nM.

Regarding `CC[C@H](C)/C=C(C)/C=C/C1=CC2=C(Br)C(=O)C(C)(O)C(=O)C2=CO1` (some centres unmarked) [Aza-13], the IC50 on RBD1 of MSI1 (setting [1]) is 4.5 µM. In addition, the Ki on RBD1 of MSI1 (setting [2]) was 1900 nM.

B1: NumbFITC RNA (ssRNA)
RNA: UAGGUAGUAGUUUUA
What is called Kd is the free concentration of one partner at which half of the binding sites on the other are occupied at equilibrium, for simple one-to-one binding. As to B1, the Kd with GB1-MSI1-RBD1 was < 250 nM.
